We go through ten compounds from patent publication US8063225B2, “Tricyclic compound derivatives useful in the treatment of neoplastic diseases, inflammatory disorders and immunomodulatory disorders” (Chembridge Corporation, priority 2006, dated 2011).

Where only a bound is given, the exact number is not on record here.

As usually defined, the IC50 is the concentration that inhibits the measured activity by half. High values mean lower potency, low ones higher potency.

One experiment deals with T1, IGF1R tyrosine kinase (Homo sapiens, UniProt P08069).
T1 construct: 6×His- or GST-tagged kinase domain fragments of the corresponding RTKs expressed in baculovirus system; host or cells: baculovirus system
T1 sequence (P08069 999-1274 limits assumed): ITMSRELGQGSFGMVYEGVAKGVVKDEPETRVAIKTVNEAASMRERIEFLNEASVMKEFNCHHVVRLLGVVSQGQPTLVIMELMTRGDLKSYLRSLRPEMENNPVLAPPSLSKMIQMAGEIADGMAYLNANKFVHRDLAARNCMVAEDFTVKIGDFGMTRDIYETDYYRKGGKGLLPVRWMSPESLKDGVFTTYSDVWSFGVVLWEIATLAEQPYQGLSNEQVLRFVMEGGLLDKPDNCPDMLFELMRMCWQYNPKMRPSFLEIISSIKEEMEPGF
Put plainly: IGF1R tyrosine kinase assay (Kinase-Glo ATP depletion or PT66/PT100 AlphaScreen). The following applies: biochemical tyrosine kinase assay. The essentials:
(§1)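 Baculovirus-expressed His- or GST-tagged kinase domains with poly(Glu-Tyr) substrate, 10 μM ATP, pH 7.5 Tris with MgCl2/MnCl2. Kinase-Glo: 60 min at 37 °C, residual ATP by luminescence; AlphaScreen: 30 min at RT, then anti-phosphotyrosine beads 60 min. Eight concentrations, 1 nM to 20 μM; IC50 by nonlinear regression.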
A general note: Kinase-Glo reads ATP consumption through a luciferase reaction.

Another experiment addresses T2, InsR (Homo sapiens, UniProt P06213).
T2 construct: 6×His- or GST-tagged kinase domain fragments of the corresponding RTKs expressed in baculovirus system; host or cells: baculovirus system
Briefly: Tyrosine kinase assay (Kinase-Glo or AlphaScreen), InsR. As to conditions: biochemical tyrosine kinase assay. The essentials: as §1

The next experiment concerns the target T3, Alk (Homo sapiens, UniProt Q9UM73).
T3 construct: 6×His- or GST-tagged kinase domain fragments of the corresponding RTKs expressed in baculovirus system; host or cells: baculovirus system
Put plainly: Tyrosine kinase assay (Kinase-Glo or AlphaScreen), Alk. As to conditions: biochemical tyrosine kinase assay. The gist of the method:
as §1

The target of a further experiment is T4, Jak2 (Homo sapiens, UniProt O60674).
T4 construct: 6×His- or GST-tagged kinase domain fragments of the corresponding RTKs expressed in baculovirus system; host or cells: baculovirus system
T4 sequence (O60674 849-1124 limits assumed, species assumed): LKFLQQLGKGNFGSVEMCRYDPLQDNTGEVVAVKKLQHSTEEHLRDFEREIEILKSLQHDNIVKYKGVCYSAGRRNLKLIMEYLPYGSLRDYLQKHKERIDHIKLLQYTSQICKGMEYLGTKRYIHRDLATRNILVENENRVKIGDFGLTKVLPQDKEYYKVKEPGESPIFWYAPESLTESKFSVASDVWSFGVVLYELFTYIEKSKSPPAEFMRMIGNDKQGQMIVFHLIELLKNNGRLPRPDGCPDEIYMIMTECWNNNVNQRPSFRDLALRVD
Put plainly: Tyrosine kinase assay (Kinase-Glo or AlphaScreen), Jak2. As to conditions: biochemical tyrosine kinase assay. The essentials: as §1

A further experiment concerns Ba/F3. Put plainly: Cell proliferation inhibition, Cell Titer-Glo, Ba/F3. As to conditions: Mus musculus, BaF3; cell proliferation assay, Ba/F3 cells. The format is cell-based. The gist of the method: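 Ba/F3 cells were seeded at 2500-5000 cells per well in white, clear-bottomed 384-well culture plates and exposed to serial dilutions of test compounds for 3 days. Cell Titer-Glo Luminescent Cell Viability Assay (Promega) reagent, which measures total ATP as an indicator of metabolic activity, was added. Luminescence was read on a multiwell plate reader to derive IC50 values for inhibition of proliferation.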
A general note: Cellular ATP, detected with luciferase, serves as a proxy for viable cell number.

A further experiment deals with Karpas-299. Briefly: Cell proliferation inhibition, Cell Titer-Glo, Karpas-299. It counts as cell-based. As to conditions: Homo sapiens; cell proliferation assay, Karpas-299 cells. The gist of the method: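 Karpas 299 cells were seeded into white, clear-bottomed 384-well culture plates at 2500-5000 cells per well and exposed to serial dilutions of test compounds for about 3 days. Viable cell numbers were then measured with the Cell Titer-Glo Luminescent Cell Viability Assay (Promega), which detects total ATP, and IC50 values for proliferation inhibition were derived.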

A further experiment deals with K562. Briefly: Cell proliferation inhibition, Cell Titer-Glo, K562. It counts as cell-based. The following applies: Homo sapiens; cell proliferation assay, K562 cells. The essentials: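 K562 cells were seeded at 2500-5000 cells per well in white, clear-bottomed 384-well culture plates and treated with dilutions of test compounds for typically 3 days. Viable cells were quantified with the Cell Titer-Glo Luminescent Cell Viability Assay (Promega), which measures total ATP, read on a luminescence plate reader to derive IC50 values for proliferation inhibition.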

T2 sequence (P06213 1023-1298 limits assumed, species assumed): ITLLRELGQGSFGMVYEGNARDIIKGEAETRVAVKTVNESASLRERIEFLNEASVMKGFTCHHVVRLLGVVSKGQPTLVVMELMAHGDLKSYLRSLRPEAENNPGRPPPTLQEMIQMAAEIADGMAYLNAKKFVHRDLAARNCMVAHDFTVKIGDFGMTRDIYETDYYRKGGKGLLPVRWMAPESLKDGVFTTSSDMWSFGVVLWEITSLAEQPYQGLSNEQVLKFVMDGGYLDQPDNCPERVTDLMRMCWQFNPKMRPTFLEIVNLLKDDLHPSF
T3 sequence (Q9UM73 1116-1392 limits assumed, species assumed): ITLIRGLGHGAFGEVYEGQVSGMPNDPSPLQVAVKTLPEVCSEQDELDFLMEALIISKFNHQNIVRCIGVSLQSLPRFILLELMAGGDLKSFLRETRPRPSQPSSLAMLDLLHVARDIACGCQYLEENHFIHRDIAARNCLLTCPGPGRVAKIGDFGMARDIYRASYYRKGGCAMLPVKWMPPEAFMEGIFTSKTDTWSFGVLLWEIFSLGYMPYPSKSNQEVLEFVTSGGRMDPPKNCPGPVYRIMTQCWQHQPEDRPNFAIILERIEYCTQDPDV

With `Cc1ccc(OC[C@H](O)CNc2cc[nH]c(=O)c2-c2nc3cc4c(cc3[nH]2)C(=O)N(C2CCN(C)CC2)C4=O)c(C(C)(C)C)c1` [compound 80], the IC50 at IGF1R tyrosine kinase was 0.5 to 5 µM; against InsR it was 5 to 15 µM; against Alk, 0.5 to 5 µM; against Jak2 it was 5 to 15 µM; in the experiment on Ba/F3 it was above 15 µM; in the experiment on Karpas-299 it was 5 to 15 µM. The compound further gave an IC50 in the experiment on K562 of 5 to 15 µM.
On to `Cc1ccc(OC[C@H](O)CNc2ccnc(O)c2-c2nc3cc4c(cc3[nH]2)C(=O)N(C2CCN(C)CC2)C4=O)c2c1CCC2` [compound 85], for which the IC50 against IGF1R tyrosine kinase was below 0.5 µM; at InsR, below 0.5 µM; against Alk, 0.5 to 5 µM; on Jak2 it was 0.5 to 5 µM; with Ba/F3, 0.5 to 5 µM; with Karpas-299, 0.5 to 5 µM. Further, in the experiment with K562, the IC50 lay in the range of 0.5 to 5 µM.
On to `CN1CCC(N2C(=O)c3cc4nc(-c5c(NC[C@@H](O)COc6ccc(C#N)c(Cl)c6)ccnc5O)[nH]c4cc3C2=O)CC1` [compound 77], for which the IC50 on IGF1R tyrosine kinase is 0.5 to 5 µM; against InsR it was 5 to 15 µM; against Alk, 0.5 to 5 µM; against Jak2, 0.5 to 5 µM; with Ba/F3 it was above 15 µM; in the experiment with Karpas-299, above 15 µM. In addition, in the experiment with K562, the IC50 is above 15 µM.
Consider `CN1CCC(N2C(=O)c3cc4nc(-c5c(NC[C@@H](O)COc6cccc(Cl)c6)ccnc5O)[nH]c4cc3C2=O)CC1` [compound 75], for which the half-maximal inhibitory concentration (IC50) at IGF1R tyrosine kinase, against InsR, against Alk, against Jak2, in the experiment on Ba/F3 and in the experiment on Karpas-299 was 0.5 to 5 µM each time. The same compound displayed an IC50 with K562 of 0.5 to 5 µM.
As to `O=C1c2cc3nc(-c4c(NC[C@@H](O)c5cccc(Cl)c5)cc[nH]c4=O)[nH]c3cc2C(=O)N1CCCO` [compound 44], the IC50 was 0.5 to 5 µM against IGF1R tyrosine kinase; 0.5 to 5 µM on InsR; above 15 µM on Alk; 0.5 to 5 µM on Jak2; above 15 µM with Ba/F3; 5 to 15 µM with Karpas-299. The compound further had an IC50 in the experiment on K562 of 5 to 15 µM.
As to `COc1cc(C)ccc1OC[C@H](O)CNc1ccnc(O)c1-c1nc2cc3c(cc2[nH]1)C(=O)N(C1CCN(C)CC1)C3=O` [compound 54], the half-maximal inhibitory concentration (IC50) against IGF1R tyrosine kinase was below 0.5 µM; at InsR, 0.5 to 5 µM; at Alk, 5 to 15 µM; on Jak2, above 15 µM; in the experiment with Ba/F3 it was 5 to 15 µM; in the experiment on Karpas-299, 5 to 15 µM. This compound showed a 50% inhibitory concentration (IC50) in the experiment on K562 of 5 to 15 µM.
Consider `CSCc1cc(C)cc(C)c1OC[C@H](O)CNc1cc[nH]c(=O)c1-c1nc2cc3c(cc2[nH]1)C(=O)N(C1CCN(C)CC1)C3=O` [compound 81], for which the concentration for half-maximal inhibition (IC50) lay within 0.5 to 5 µM against IGF1R tyrosine kinase; 5 to 15 µM at InsR; 0.5 to 5 µM at Alk; 5 to 15 µM at Jak2; 5 to 15 µM with Ba/F3; 5 to 15 µM in the experiment on Karpas-299. This compound registered an IC50 in the experiment with K562 above 15 µM.
For the compound `Cc1ccc(OCC(O)CNc2ccnc(O)c2-c2nc3cc4c(cc3[nH]2)C(=O)N(CC(C)(C)CN(C)C)C4=O)c(C)c1` (stereo not shown) [compound 62], the IC50 is below 0.5 µM on IGF1R tyrosine kinase; 0.5 to 5 µM at InsR; 5 to 15 µM against Alk; 5 to 15 µM against Jak2; 5 to 15 µM in the experiment with Ba/F3; 5 to 15 µM in the experiment with Karpas-299. The IC50 in the experiment with K562 is 0.5 to 5 µM.
As to `CC(Nc1cc[nH]c(=O)c1-c1nc2cc3c(cc2[nH]1)C(=O)N(C1CCN(C)CC1)C3=O)C1COc2ccccc2O1` (stereo not shown) [compound 40], the half-inhibitory concentration (IC50) on IGF1R tyrosine kinase fell in the range of 5 to 15 µM; against InsR it was 5 to 15 µM; on Alk it was 5 to 15 µM; against Jak2 it was 0.5 to 5 µM; in the experiment on Ba/F3, 0.5 to 5 µM; in the experiment with Karpas-299, 5 to 15 µM. The concentration for half-maximal inhibition (IC50) with K562 fell in the range of 5 to 15 µM.
Consider `CN1CCC(N2C(=O)c3cc4nc(-c5c(NN)ccnc5O)[nH]c4cc3C2=O)CC1` [compound 65], for which the IC50 against IGF1R tyrosine kinase was 5 to 15 µM; against InsR, 5 to 15 µM; at Alk, above 15 µM; on Jak2, 5 to 15 µM; in the experiment on Ba/F3 it was above 15 µM; in the experiment on Karpas-299, above 15 µM. In the experiment on K562, this compound came in with a concentration for half-maximal inhibition (IC50) above 15 µM.
